Laboratory results from PubChem BioAssay AID1329 (NMMLSC, 2008).
Activity calls are given as the source filed them. The rule behind the calls is not given here.

The compounds below were run against Induced myeloid leukemia cell differentiation protein Mcl-1 (Homo sapiens) (UniProt Q07820) (assay: Mcl-1/Bim interaction regulators – biochemical, bead-based flow cytometry, multiplexed, human, dose response (AID 1329)). Conditions: Bim peptide-Mcl-1 binding, MCF.
Induced myeloid leukemia cell differentiation protein Mcl-1 (Homo sapiens), sequence (Q07820 whole entry, looked up): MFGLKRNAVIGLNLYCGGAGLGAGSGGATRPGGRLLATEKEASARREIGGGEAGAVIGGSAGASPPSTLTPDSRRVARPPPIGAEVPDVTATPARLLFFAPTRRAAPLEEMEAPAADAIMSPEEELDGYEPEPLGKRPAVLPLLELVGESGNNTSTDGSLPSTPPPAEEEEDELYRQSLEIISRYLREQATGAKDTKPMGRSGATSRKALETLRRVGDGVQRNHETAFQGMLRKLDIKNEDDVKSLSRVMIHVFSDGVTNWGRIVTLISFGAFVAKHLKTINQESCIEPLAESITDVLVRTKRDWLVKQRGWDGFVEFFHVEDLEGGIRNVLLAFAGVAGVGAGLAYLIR

Compound | EC50
COc1cc(/C=N/Nc2nn3cnnc3c3ccccc23)ccc1O | inactive

Same assay, conditions: Bim peptide-Mcl-1 binding, MCF

Compound | percent span
COc1ccc(N2C(=O)C(Cl)=C(Nc3ccccc3O)C2=O)cc1 | inactive
NC(=O)c1c(N)sc2c1CCCCC2 | inactive
OCCC1CN(Cc2ccc3ncccc3c2)CCN1Cc1ccccc1 (configuration not stated) | inactive
O=C(/C=C/c1c(F)cccc1Cl)Nc1ccncc1 | inactive
COc1ccc(NC(=O)c2ccc3c(c2)NC(=O)CS3)cc1S(=O)(=O)Nc1ccc(Br)cc1 | inactive
NCC(c1ccccc1)c1c[nH]c2ccccc12 (configuration not stated) | inactive
COc1ccc(N2C(=O)C(Cl)=C(Nc3c(C)n(C)n(-c4ccccc4)c3=O)C2=O)cc1 | inactive
C=CCSc1nc(N)c2c(C)c(C)sc2n1 | inactive
O=C(Cc1ccccc1)OCCNC(=O)c1cccnc1 | inactive
COc1ccc(N2CCN(CCCNC(=O)CCCn3c(=O)[nH]c4ccsc4c3=O)CC2)cc1 | inactive
COc1ccc(OCCNC(=O)c2ccccc2OCC(=O)N2CCCCC2)cc1 | inactive
CCN(CC)c1ccc(NC2=C(Cl)C(=O)c3ccccc3C2=O)cc1 | inactive
Cc1ccc(NC(=O)c2cc(S(=O)(=O)NCCC3=CCCCC3)ccc2F)cc1F | inactive
O=C(NC1=C(Nc2ccc(F)cc2)C(=O)c2ccccc2C1=O)c1ccc(Cl)cc1 | inactive
C/C(=N/NC(=O)c1cc(O)c(O)c(O)c1)c1ccc([N+](=O)[O-])cc1 | inactive
Cc1ccc(/C=C/C(=O)Nc2ccc([N+](=O)[O-])c(NC(=O)/C=C/c3ccc(C)o3)c2)o1 | inactive
O=C(COC(=O)CCCN=C1NS(=O)(=O)c2ccccc21)NC(=O)NC1CCCC1 | inactive
CNc1ccc(Br)cc(C(=O)/C=C/c2cccc(OC)c2)c1=O | inactive
CNC(=O)c1c(N)sc2c1CCCCC2 | inactive
O=C(O)CC1S/C(=N/N=C/C=C/c2ccccc2[N+](=O)[O-])NC1=O (configuration not stated) | inactive
O=C(CSc1nnc(-c2ccccc2)c(-c2ccccc2)n1)N1CCc2ccccc21 | inactive
COc1cc2[nH]c(=S)nc(NCCCOC(C)C)c2cc1OC | inactive
Cc1ccc(NC2=C(NC(=O)c3ccccc3)C(=O)c3ccccc3C2=O)cc1Cl | inactive
Cc1nc(NC(=O)CC(C)C)sc1-c1csc(Nc2ccc(Cl)cc2)n1 | inactive

Compound | percent span
O=C(C[n+]1ccc(-c2nnc3n2CCC3)cc1)c1ccc(Cl)c(Cl)c1 | inactive
O=C(CSc1nc2ccsc2c(=O)n1Cc1ccc(C(=O)O)cc1)NCC1CCCO1 (configuration not stated) | inactive
c1ccc2c(N3CCOCC3)nc(N3CCOCC3)nc2c1 | inactive
Cc1ccnc(NS(=O)(=O)c2ccc(NC(=O)c3c(-c4ccccc4Cl)noc3C)cc2)n1 | inactive
Cc1[nH]c2ccccc2c1C(=O)COC(=O)c1c(-c2c(F)cccc2Cl)noc1C | inactive
Cc1ccccc1OCC(=O)N/N=C/c1ccccn1 | inactive
COC(=O)c1c(C(=O)OC)c2cccc3cc(-c4ccccc4)c4ccc1c4n32 | inactive
Cc1ccc(NS(=O)(=O)c2cc(NC(=O)c3ccc4c(c3)NC(=O)CS4)ccc2C)c(C)c1 | inactive
COc1ccc(NC(=O)Cc2c(F)cccc2Cl)c(OC)c1 | inactive
Cc1noc(C)c1CN1C(=O)NC(Cc2ccccc2)(Cc2ccccc2)C1=O | inactive
COc1cccc(N2CC(C(=O)Nc3nnc(SCC(=O)c4ccccc4)s3)CC2=O)c1 (configuration not stated) | inactive
NC(=O)c1c(NC(=O)C2CCCO2)sc2c1CCCCC2 (configuration not stated) | inactive
O=C(Cn1cncc1-c1ccc([N+](=O)[O-])cc1)Nc1ccccc1F | inactive
Cc1cc(C)cc(NS(=O)(=O)c2ccc3c(c2)c(=O)n(C)c(=O)n3C)c1 | inactive
COC(=O)CCC(=O)Nc1sc(C)c(C)c1C(N)=O | inactive
O=C(O)CCN1C(=O)/C(=C\c2ccc(-c3nc4ccccc4s3)o2)SC1=S | inactive
CCN1CCN(CC(=O)c2c[nH]c3ccc(C)cc23)CC1 | inactive
CCN(CC)S(=O)(=O)c1cccc(C(=O)N/N=C/c2ccc(O)c(O)c2O)c1 | inactive
Cc1cc2nc(/C(C#N)=C/c3ccncc3)[nH]c2cc1C | inactive
CN(C)[C@@H]1C(=O)C(C(=O)NCN2CCCC2)=C(O)[C@@]2(O)C(=O)C3=C(O)c4c(O)cccc4[C@@](C)(O)C3CC12 (some centres not stated) | inactive
Cc1ccc2c(c1)c(C)c(C)n2CC(O)Cn1nc(C)c(Br)c1C (configuration not stated) | inactive
Cc1ccc(Nc2nc(CSc3nnc(-c4cccnc4)n3-c3ccccc3C)cs2)cc1 | inactive
Cc1cc(N2CCN(C)CC2)nc2ccc(NC(=S)N3CCN(c4cccc(Cl)c4)CC3)cc12 | inactive
CC(=O)Nc1ccc2nc(CN3CCN(CC(C)C)C(CCO)C3)ccc2c1 (configuration not stated) | inactive

Compound | percent span
O=C(Nc1cccc(Cl)c1)Nc1ccnc(-c2cccnc2)n1 | inactive
Cc1ccc(/C=C/C2=Cc3c(sc(NC(=O)CSc4n[nH]c(N)n4)c3C#N)C(C)(C)C2)o1 | inactive
CN(C)c1ccc(C(=O)/C=C/c2ccc(Br)cc2)cc1 | inactive
Cc1csc(Nc2ccccc2C(F)(F)F)n1 | inactive
O=C(Nc1nnc(COc2ccc(Cl)cc2)s1)c1ccco1 | inactive
O=C(Nc1nnc(C2CC2)s1)C1Cc2ccccc2CN1S(=O)(=O)c1ccccc1F (configuration not stated) | inactive
Cc1cccc(NC(=S)N2CCn3cccc3C2c2cccnc2)c1 (configuration not stated) | inactive
O=C(NCc1ccccn1)c1ccc2nc(-c3ccco3)c(-c3ccco3)nc2c1 | inactive
Cc1csc(SCCn2c(N3CCN(c4ccccc4)CC3)nc3c2c(=O)[nH]c(=O)n3C)n1 | inactive
COc1cccc(-n2nnnc2SCC(=O)Nc2cccc(NC(C)=O)c2)c1 | inactive
Cc1ccc(-c2ccc(CCC(=O)O)n2NC(=O)c2cccs2)cc1 | inactive
Cc1nn(-c2ccc(Cl)cc2)c(Cl)c1/C=C(\C#N)C(N)=O | inactive
COc1ccc(-n2c(NC(=O)c3ccco3)c(C#N)c3nc4ccccc4nc32)cc1 | inactive
O=[N+]([O-])c1c(NCCCO)cc(Sc2nc3ccccc3s2)c2nonc12 | inactive
NC(=O)c1sc2nc3c(c(-c4ccco4)c2c1N)CCC3 | inactive
O=C(COC(=O)c1ccccn1)NC1CCCCC1 | inactive
O=C(CSc1nnc(-c2ccco2)n1Cc1ccccc1)c1ccccc1 | inactive
CC(C)c1ccc(C2CC(c3ccc(Br)cc3)=NN2C(N)=S)cc1 (configuration not stated) | inactive
O=C1c2ccccc2-c2onc3ccc(NCCCn4ccnc4)c1c23 | inactive
Cc1nc2ccccc2n1CSc1ccccc1 | inactive
O=C(O)/C=C/C(=O)NNC(=O)c1ccc(Br)cc1 | inactive
Cc1ccc(NC(=O)CC2S/C(=N/N=C/c3c[nH]c4ccccc34)NC2=O)cc1 (configuration not stated) | inactive
O=C(C1=NN[C@@H]2C(=O)N(c3ccccc3C(F)(F)F)C(=O)[C@H]12)c1ccc2ccccc2n1 | inactive
